Entries after “also recorded” stand apart in the source; their conditions may differ. Read-outs that look alike come from different tables or passages of the source.
Tests used:
[1] = target: PDHc (Escherichia coli, UniProt P0AFG8); experiment: Inactivation of 1-lip and 3-lip PDH complexes by 2-oxo-3-alkynoic acids (overall NADH assay); type: biochemical, E. coli; parameters: made in house; host or cells: E. coli JRG1342 (PDHc null) with Ptac plasmid pGS501 (1-lip) or pGS523 (3-lip); conditions: for kapp, slower phase of inactivation: PDHc
From the text: Bacterial strains and plasmids for PDHc. Derivatives of the PDHc null strain, E. coli JRG1342 contained Ptac expression plasmids encoding PDHc with E2 chains bearing three lipoyl domains (3-lip PDHc; pGS523, the wild type parental complex), or a single lipoyl domain in each E2 subunit (1-lip PDHc; pGS501), and variant 1-lip PDH complexes with mutations in the E1 gene leading to C259S (pGS457) and C259N (pGS596) substitutions (Machado et al., 1992; Machado, 1993).
Purification of PDHc. Cultures for purification of 1-lip and 3-lip PDH complexes were grown at 37° C. in LB medium containing glucose (0.2%) and ampicillin (50 μg/mL). The PDH complexes were induced by adding IPTG to 60 μM as described by Russell et al. (1992). Cells were disrupted by ultrasonic treatment after preincubation with lysozyme (0.6 mg/mL final concentration) for 15 min. The PDHc was sedimented by ultracentrifugation (100,000×g for 3 h) and further purified by chromatography on a
Sephacryl S-400 HR column. Fractions containing PDHc were pooled and treated with ammonium sulfate to 70% saturation. The enzyme was dissolved in buffer A (20 mM potassium phosphate, pH 7.8, 2 mM Na2 EDTA, 1 mM PMSF, and 1 mM benzamidine.HCl) then dialyzed against the same buffer. The PDH complexes were stored in buffer A at -20° C.
(§1) Activity and related measurements on PDHc. The overall enzymatic reaction of the PDH complex was assayed using a Varian DMS 300 spectrophotometer or the Cobas Bio (Roche Diagnostics, Somerville, N.J.) automated centrifugal analyzer, monitoring the pyruvate-dependent reduction of NAD^+ at 340 nm. The reaction medium contained in 1 mL (DMS 300) or 0.25 mL (Cobas-Bio) test volume: 0.1 M Tris-HCl, pH 8.0; 1 mM MgCl2; 2 mM sodium pyruvate; 2.5 mM NAD^+; 0.052-0.2 mM coenzyme A; 0.2 mM ThDP; and 2.6 mM DTT at 27° C. The reaction was initiated either by adding enzyme to a mixture of all other components, or by adding CoA.
(§2) One unit of activity is defined as the amount of NADH produced (μmol) per min per mg protein. The activity of resolved E1 was measured after reconstitution with excess E2-E3 subcomplex using the NADH assay for PDHc activity.
(§3) Inactivation of 1-lip and 3-lip PDH complexes and resolved E1 component by 2-oxo-3-alkynoic acids. Intact 1-lip or 3-lip PDH complexes (0.050-0.1 mg) or resolved E1 component (0.05-0.09 mg) were incubated in the dark with 5 mM MgCl2, […] of 2-oxo-3-alkynoic acids in 20 mM KH2 PO4 buffer, pH 7.5 at room temperature in a total volume 0.5 mL. The initial activity (100%) was assayed prior to the addition of 2-oxo-3-alkynoic acids. Samples (50 μL) were withdrawn periodically and diluted into 1 mL of assay solution, containing all components necessary for assay of the overall activity. The activity of untreated enzyme was stable during the time of inactivation.

[2] = target: T1, PDC from Saccharomyces cerevisiae (Saccharomyces cerevisiae, UniProt P06169); conditions: cited from earlier work; for inhibition of brewer's yeast PDC (in words): Chiu & Jordan, 1994
T1 sequence (P06169 2-563 limits assumed): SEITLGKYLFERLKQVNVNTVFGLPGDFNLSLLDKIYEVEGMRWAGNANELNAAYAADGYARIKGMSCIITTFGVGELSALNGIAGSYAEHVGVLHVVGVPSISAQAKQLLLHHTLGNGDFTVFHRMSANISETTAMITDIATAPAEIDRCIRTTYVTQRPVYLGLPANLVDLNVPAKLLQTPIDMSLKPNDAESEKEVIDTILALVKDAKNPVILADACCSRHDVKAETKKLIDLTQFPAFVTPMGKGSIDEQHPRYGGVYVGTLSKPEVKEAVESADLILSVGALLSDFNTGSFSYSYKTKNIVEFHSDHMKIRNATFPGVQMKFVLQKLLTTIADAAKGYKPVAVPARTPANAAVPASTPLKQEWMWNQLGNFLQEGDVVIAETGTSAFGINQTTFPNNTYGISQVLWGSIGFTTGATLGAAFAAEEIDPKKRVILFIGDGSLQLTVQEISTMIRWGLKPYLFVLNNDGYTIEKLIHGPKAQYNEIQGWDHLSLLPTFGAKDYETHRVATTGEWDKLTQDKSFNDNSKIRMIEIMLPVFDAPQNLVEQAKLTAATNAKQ

[3] = target: T2, Pyruvate decarboxylase from Saccharomyces cerevisiae (Saccharomyces cerevisiae, UniProt P06169); experiment: Inactivation of pyruvate decarboxylase (PDC); type: biochemical
T2 construct: made in house; host or cells: E. coli
T2 sequence (P06169 2-563 limits assumed): T1 sequence (P06169 2-563 limits assumed)
Protocol: Pyruvate decarboxylase from Saccharomyces cerevisiae was overexpressed in E. coli (Baburina et al., 1994), then purified according to Farrenkopf & Jordan (1992). It was assayed spectrophotometrically by coupling to alcohol dehydrogenase (Holzer et al., 1960).

[4] = target: T3, E1 (Escherichia coli, UniProt P0AFG8); experiment: Fluorescence measurements on binding to E1; parameters: species or system E. coli; conditions: 2 mM
T3 construct: made in house; host or cells: resolved from PDHc expressed in E. coli JRG1342
Protocol: Fluorescence measurements on the binding of 2-oxo-3-butynoic acid to E1. The fluorescence spectrum of apo-E1 (enzyme having no activity in the absence of ThDP) was measured using the SLM8100 spectrofluorimeter at 25° C. The excitation wavelength was 295 nm and the emission spectrum, presumably due to tryptophan, was recorded in the 300-450 nm range in a 1 mL or 3 mL quartz cuvette. The concentration of apo-E1 was 0.05-0.175 mg/mL in 20 mM KH2 PO4 buffer, pH 7.5. The excitation and emission monochromator slit widths were 4 nm. The V.3.0 software and KaleidaGraph computer program were used for data processing. The emission maximum for tryptophan (λ=335 nm) was determined by fitting the points from the peak using the KaleidaGraph computer program.

[5] = target: T4, resolved E1 (Escherichia coli, UniProt P0AFG8); experiment: Inactivation of resolved E1 component (activity after reconstitution with E2-E3 subcomplex); type: biochemical, E. coli; conditions: for effect on catalytic activity of resolved E1 (in words): data not shown
T4 construct: made in house; host or cells: resolved from PDHc expressed in E. coli JRG1342
Protocol: Resolution of the E1 component from PDHc. […] PDHc was dialyzed against 50 mM Tris buffer, pH 9.0, containing 0.1 mM benzamidine.HCl, 0.15 M NaCl, 0.1 mM PMSF for 2 h, before applying to a column equilibrated and eluted with the same buffer.
as §1, §2, §3

[6] = target: T4, resolved E1; conditions: read-out: Ki, reversible inhibition of resolved E1; dichorophenolindophenol assay, Lowe & Perham 1984; cited from earlier work
[7] = target: T5, Pyruvate oxidase from Lactobacillus plantarum (Lactiplantibacillus plantarum, UniProt P37063); experiment: Inactivation of pyruvate oxidase (POX); type: biochemical; conditions: for kinact/KI: read-out: kc/Ki,c (converted)
T5 construct: purchased Boehringer Mannheim (a gift, not bought)
T5 sequence (P37063 1-603): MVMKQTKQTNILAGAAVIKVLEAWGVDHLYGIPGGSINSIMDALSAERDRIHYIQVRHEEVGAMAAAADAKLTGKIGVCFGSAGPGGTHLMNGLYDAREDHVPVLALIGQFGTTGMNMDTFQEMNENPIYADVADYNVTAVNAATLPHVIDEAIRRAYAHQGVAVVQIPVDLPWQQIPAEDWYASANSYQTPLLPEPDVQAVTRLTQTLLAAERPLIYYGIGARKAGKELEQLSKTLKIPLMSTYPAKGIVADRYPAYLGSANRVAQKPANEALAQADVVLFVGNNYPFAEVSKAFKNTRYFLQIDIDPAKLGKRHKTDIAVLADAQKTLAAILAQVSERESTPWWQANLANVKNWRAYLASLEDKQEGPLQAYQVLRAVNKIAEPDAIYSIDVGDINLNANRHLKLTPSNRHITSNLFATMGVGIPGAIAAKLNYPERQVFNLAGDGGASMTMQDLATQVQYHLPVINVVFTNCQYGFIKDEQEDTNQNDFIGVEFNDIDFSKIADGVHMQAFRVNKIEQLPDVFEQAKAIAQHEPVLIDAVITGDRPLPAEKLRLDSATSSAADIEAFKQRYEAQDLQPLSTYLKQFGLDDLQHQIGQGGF
Protocol: Pyruvate oxidase from Lactobacillus plantarum was a gift from Boehringer Mannheim and was assayed according to the manufacturer's instructions at 25° C. by measuring the rate of 4-quinonimine production from H2 O2, 3,5-dichlorophenolsulfonic acid and 4-aminoantipyrine in the presence of horseradish peroxidase, at 546 nm, using a Cobas-Bio (Roche Diagnostics, Somerville, N.J.) automated centrifugal analyzer. The assay reaction mixture (total vol. 0.25 mL) contained: 40 mM sodium pyruvate; 50 mM potassium phosphate buffer, pH 6.5 with 10% (v/v) glycerol; 6.8 mM 3,5-dichlorophenolsulfonic acid; 0.03% of 4-aminoantipyrine; and 5u/mL of horseradish peroxidase. The reaction was initiated by adding POX.

[8] = target: PDHc from E. coli (Escherichia coli, UniProt P0AFG8); conditions: cited from earlier work
[9] = target: T6, POX from Lactobacillus plantarum (Lactiplantibacillus plantarum, UniProt P37063); conditions: cited from earlier work
T6 sequence (P37063 1-603): T5 sequence (P37063 1-603)

[10] = target: T4, resolved E1; conditions: read-out: Ki E1; calculated from data of Flournoy and Frey (1989); cited from earlier work

In the case of `O=C(O)C(=O)C#Cc1ccccc1` [2-oxo-4-phenyl-3-butynoic acid, reference compound], the “inhibition / inactivation of PDHc (in words)” value [1] is listed as “no effect; also recorded: no inhibition” and the “inhibition of brewer's yeast PDC (in words)” value [2] is listed as “inhibited”.

`O=C(O)C(=O)/C=C/c1ccc(Cl)cc1` [E-4(4-chlorophenyl)-2-oxo-3-butenoic acid, reference compound] showed a Ki ([3]; PDC, read-out: Ki) of 700 µM, a kinact ([3]; PDC, read-out: first order rate constant of inactivation (ki) (converted)) of 0.00633 s⁻¹ and a kinact/KI ([3]; PDC, read-out: ki/Ki (converted)) of 9 M⁻¹ s⁻¹.

In the case of `CC(=O)C(=O)O` [pyruvate, reference compound], the “decrease of fluorescence intensity of E1” value ([4]; absence of ThDP) is reported as 21% and the “decrease of fluorescence intensity of E1” value ([4]; with ThDP 0.2 mM and MgCl2 1 mM) is reported as “about 15%”.

With `O=C(O)c1cc(SSc2ccc([N+](=O)[O-])c(C(=O)O)c2)ccc1[N+](=O)[O-]` [5,5'-dithiobis-(2-nitrobenzoic acid), reference compound] the “effect on catalytic activity of resolved E1 (in words)” value [5] was “not significantly affected”.

For `O=C(O)C(=O)CBr` [bromopyruvate], the Ki [6] is listed as 90 ± 15 µM.

For `CC#CC(=O)C(=O)O` [2-oxo-3-pentynoic acid, 2-Oxo-3-pentynoic acid], the Ki [1] was 276 µM, the “partial protection by pyruvate on slow phase of inactivation” value ([1]; 1-lip PDHc, 3 mM inhibitor, 5 mM pyruvate, 1 mM ThDP) was 21% and the “kapp, slower phase of inactivation” value ([1]; 3 mM inhibitor) was 0.048 min⁻¹. The “kapp, slower phase of inactivation” value ([1]; 4 mM inhibitor) was 0.022 min⁻¹, the kinact/KI ([1]; pH 7.5, read-out: ki/Ki PDHc) was 25.3 M⁻¹ s⁻¹ and the activity at 3000 µM ([1]; read-out: residual activity after 26 min of inactivation, 1-lip PDHc, 3 mM inhibitor, absence of pyruvate) was 14%. For the same molecule, the activity at 3000 µM ([1]; read-out: residual activity after 26 min of inactivation, 1-lip PDHc, 3 mM inhibitor, presence of 5 mM pyruvate) was 35%, the “inhibition / inactivation of POX (in words)” value [7] was “inhibit” and the saturation by inhibitor ([7]; POX) was “no”. The kinact/KI ([7]; POX, from linear portion at high inhibitor concentrations (d)) was 0.207 M⁻¹ s⁻¹, the kinact/KI ([7]; POX, from linear portion at low inhibitor concentrations (c)) was 0.0473 M⁻¹ s⁻¹ and the “inhibition / inactivation of PDC (in words)” value [3] was “inhibit”.

For `O=C(O)C(=O)C=Cc1ccccc1` [2-oxo-4-phenyl-3-butenoic acid, reference compound], the “inhibition / inactivation of PDHc (in words)” value [1] is listed as “no effect” and the “inhibition of brewer's yeast PDC (in words)” value [2] is listed as “inhibited”.

With `CSS(C)(=O)=O` [methylmethanethiolsulfonate, reference compound] the “effect on catalytic activity of resolved E1 (in words)” value [5] was “not significantly affected”.

For `CCC(=O)C(=O)O` [2-oxobutanoic acid], the Km ([8]; Bisswanger (1981), read-out: Km (substrate of E. coli PDHc)) is given as 3 mM and the “substrate-like activity with POX” value ([9]; manufacturer's information) is given as “fails to show substrate-like activity”.

For `CC(=O)[PH](=O)O` [acetylphosphinate], the Ki ([2]; PDC from Saccharomyces cerevisiae) is given as 470 µM, the Ki ([8]; PDHc from E. coli) is given as 0.15 µM and the Ki ([9]; POX from Lactobacillus plantarum) is given as 50 µM.

For `O=C(O)C(=O)CF` [fluoropyruvate], the Ki [10] is listed as 28 µM and the Ki ([8]; calculated from data of Flournoy and Frey (1989), read-out: Ki PDHc) is listed as 33 µM.

In the case of `O=C(O)c1cc[c]([Hg][Cl])cc1` [p-chloromercuribenzoate, reference compound], the “molar excess required to inactivate E1” value [5] is reported as 300 fold molar excess.

Reference: patent US6204220A, “Substituted 2-oxo-3-alkynoic acids and methods of use thereof” (Rutgers, The State University of New Jersey, priority 1999, dated 2001)
